Assays:
[1] = Cytotoxicity against BALB/c mouse splenocytes incubated for 48 hrs by MTT assay; format: toxicity, cell-based, Splenocyte
Splenocyte [2] = assay: Immunosuppressive activity in BALB/c mouse splenocytes assessed as inhibition of ConA-induced T cell proliferation by measuring [3H]-thymidine uptake by beta scintillation counter analysis; format: functional, cell-based
[3] = Selectivity index, ratio of CC50 for cytotoxicity against BALB/c mouse splenocyte to IC50 for immunosuppressive activity in BALB/c mouse splenocytes assessed as inhibition of ConA-induced T cell proliferation; format: cell-based; conditions: read-out: Ratio CC50/IC50
Splenocyte [4] = assay: Immunosuppressive activity in BALB/c mouse splenocytes assessed as inhibition of LPS-induced B cell proliferation by measuring [3H]-thymidine uptake by beta scintillation counter analysis; format: functional, cell-based
[5] = Selectivity index, ratio of CC50 for cytotoxicity against BALB/c mouse splenocyte to IC50 for immunosuppressive activity in BALB/c mouse splenocytes assessed as inhibition of LPS-induced B cell proliferation; format: cell-based; conditions: read-out: Ratio CC50/IC50

| Compound | CC50 at 48 h [1] | IC50 (Splenocyte [2]) | selectivity ratio [3] | IC50 (Splenocyte [4]) | selectivity ratio [5] |
| --- | --- | --- | --- | --- | --- |
| COc1cc(C[C@H]2CO[C@@H]3Oc4cc5c(cc4C[C@H]23)OCO5)ccc1O | 40.1 µM | 10.1 µM | 4 | 2.7 µM | 14.9 |
| O=C(Cc1ccc2c(c1)OCO2)[C@H](CO)Cc1ccc2c(c1)OCO2 | 68 µM | 18 µM | 3.8 | 3.9 µM | 17.5 |
| OC[C@H](Cc1ccc2c(c1)OCO2)[C@](O)(CO)Cc1cc2c(cc1O)OCO2 | 99.3 µM | 27.3 µM | 3.6 | 18.2 µM |  |
| Oc1cc2c(cc1C[C@H]1CO[C@@H]3Oc4cc5c(cc4C[C@H]13)OCO5)OCO2 | 90.3 µM | 51.7 µM | 1.7 | 32.8 µM | 2.8 |
| OC[C@H](Cc1cc2c(cc1O)OCO2)[C@](O)(CO)Cc1cc2c(cc1O)OCO2 | 108 µM | 56.2 µM | 1.9 | 26.7 µM | 4.1 |
| COc1cc2c(cc1O)O[C@H]1OC[C@H](Cc3cc4c(cc3O)OCO4)[C@H]1C2 | 82.5 µM | 14.8 µM | 5.6 | 12.1 µM | 6.8 |

Source: ChEMBL document CHEMBL5321255, “Sumatranins A-J: Lignans with Immunosuppressive Activity from Cleistanthus sumatranus” (J Nat Prod, 2023)
